The values below come from patent publication US12029726B1, “Composition and method of treating conditions associated with extracellular matrix dysfunction by administering micronutrient composition” (priority 2023, dated 2024).

The subject of this experiment is cultured human chondrocytes and synovial fibroblasts. Put plainly: LPS-induced arthritic processes in cultured human synovial cells (IL6, MMP13 release; Col2, Aggr, HA content), summary. It counts as cell-based. The settings on record: added to cell culture medium with LPS. The source says: Inflammation process was initiated by additions of bacterial lipopolysaccharide (LPS) to cell culture medium. Tested parameters included cellular release of interleukin 6 (IL6) as an indicator of induced inflammation, cell culture accumulation of specific extracellular matrix (ECM) components, such as collagen type II (Col2), aggrecan (Aggr) and hyaluronic acid (HA), and release of matrix metalloproteinase 13 (MMP13) as an indicator of cartilage digesting process. Addition of LPS to cell cultures induced inflammation process characterized by dramatic increase in cellular release of IL6 and MMP13 and reduction in cell culture content of Col2, Aggr and HA.
Experiments: For the experiments cells were seeded in 96 well plastic cell culture plates covered with fibronectin (Greiner Bio-One) and grown to a confluent layer at 37° C. and 5% CO2 in corresponding cell culture medium. Cells were supplemented with 3 mcg/ml bacterial lipopolysaccharide (LPS, inflammation inducing treatment) and micronutrient composition were applied for indicated period in growth medium as indicated in the corresponding figure legends. At the end of the incubation cultured cells layers were washed twice with phosphate buffered saline (PBS) and treated in two ways: for the exposition of extracellular matrix (ECM) cells were lysed by 3 min incubation with 0.5% Triton X100/PBS which was followed by 3 min incubation with 25 mM NH4OH/PBS at room temperature or the cells were fixed by using 3% formaldehyde/PBS for one hour at 4° C. […]
Aggrecan, Collagen type II and Hyaluronic Acid content in 96 well plates prepared as described above, which is either exposed ECM or in fixed cells, was assayed by standard sandwich type immunoassay (ELISA, all reagents from Sigma-Aldrich) using rabbit polyclonal anti aggrecan, rabbit polyclonal anti collagen type II antibodies or biotinylated Hyaluronic Acid binding protein as primary treatment and goat anti rabbit IgG antibodies conjugated with horse radish peroxidase (HRP) or HRP-conjugated High Density Streptavidin as secondary treatment, respectively. Assayed component content was estimated by color changing reaction of HRP substrate (TMB substrate solution, Sigma-Aldrich) measured as 450 nm optical density using microplate optical density reader (Molecular Devices). […]
Effects of Micronutrient composition on Release of Inflammation Markers in Cultured Human Synovial Cells: Inflammation process was induced in human chondrocytes cultured in 96 well plates with LPS as described above. […] At the end of indicated incubation period interleukin 6 (IL6) and matrix metalloproteinase 13 (MMP13) levels in conditioned cell culture media were measured by ELISA using assay kits (R&D Systems) in accordance with manufacturer's protocol. […]

As to `O=C(O)CCC(=O)C(=O)O` [Alpha Keto-Glutarate], the “reversal of LPS-induced arthritic processes (increase in IL6 and MMP13 release, reduction in Col2, Aggr and HA content)” value was “reversed to different degrees”.

Consider `O=C([O-])/C=C/C(=O)[O-].[Fe+2]` [Iron (II) Fumarate], for which the “reversal of LPS-induced arthritic processes (increase in IL6 and MMP13 release, reduction in Col2, Aggr and HA content)” value is “reversed to different degrees”.

With `NC(=O)CC[C@H](N)C(=O)O` [L-Glutamine], the “reversal of LPS-induced arthritic processes (increase in IL6 and MMP13 release, reduction in Col2, Aggr and HA content)” value was “reversed to different degrees”.

Take `C[S+](CC[C@H](N)C(=O)[O-])C[C@H]1O[C@@H](n2cnc3c(N)ncnc32)[C@H](O)[C@@H]1O` (stereo partly shown) [S-Adenosyl Methionine]: the “reversal of LPS-induced arthritic processes (increase in IL6 and MMP13 release, reduction in Col2, Aggr and HA content)” value is recorded as “reversed to different degrees”.
